The source of these data is patent publication US8268990B2, “Compounds” (AstraZeneca AB, priority 2007, dated 2012).

As usually defined, the EC50 is the concentration needed to bring the measured effect to its halfway point.

The structures appear in SMILES notation.

The test addresses T1, Recombinant human TLR7 (Homo sapiens, UniProt Q9NYK1).
T1 construct: expressed in transfected cells; host or cells: HEK293 cell line stably expressing the pNiFty2-SEAP reporter plasmid; TLR7 in vector pUNO, blasticidin selection
T1 sequence (Q9NYK1 27-1049): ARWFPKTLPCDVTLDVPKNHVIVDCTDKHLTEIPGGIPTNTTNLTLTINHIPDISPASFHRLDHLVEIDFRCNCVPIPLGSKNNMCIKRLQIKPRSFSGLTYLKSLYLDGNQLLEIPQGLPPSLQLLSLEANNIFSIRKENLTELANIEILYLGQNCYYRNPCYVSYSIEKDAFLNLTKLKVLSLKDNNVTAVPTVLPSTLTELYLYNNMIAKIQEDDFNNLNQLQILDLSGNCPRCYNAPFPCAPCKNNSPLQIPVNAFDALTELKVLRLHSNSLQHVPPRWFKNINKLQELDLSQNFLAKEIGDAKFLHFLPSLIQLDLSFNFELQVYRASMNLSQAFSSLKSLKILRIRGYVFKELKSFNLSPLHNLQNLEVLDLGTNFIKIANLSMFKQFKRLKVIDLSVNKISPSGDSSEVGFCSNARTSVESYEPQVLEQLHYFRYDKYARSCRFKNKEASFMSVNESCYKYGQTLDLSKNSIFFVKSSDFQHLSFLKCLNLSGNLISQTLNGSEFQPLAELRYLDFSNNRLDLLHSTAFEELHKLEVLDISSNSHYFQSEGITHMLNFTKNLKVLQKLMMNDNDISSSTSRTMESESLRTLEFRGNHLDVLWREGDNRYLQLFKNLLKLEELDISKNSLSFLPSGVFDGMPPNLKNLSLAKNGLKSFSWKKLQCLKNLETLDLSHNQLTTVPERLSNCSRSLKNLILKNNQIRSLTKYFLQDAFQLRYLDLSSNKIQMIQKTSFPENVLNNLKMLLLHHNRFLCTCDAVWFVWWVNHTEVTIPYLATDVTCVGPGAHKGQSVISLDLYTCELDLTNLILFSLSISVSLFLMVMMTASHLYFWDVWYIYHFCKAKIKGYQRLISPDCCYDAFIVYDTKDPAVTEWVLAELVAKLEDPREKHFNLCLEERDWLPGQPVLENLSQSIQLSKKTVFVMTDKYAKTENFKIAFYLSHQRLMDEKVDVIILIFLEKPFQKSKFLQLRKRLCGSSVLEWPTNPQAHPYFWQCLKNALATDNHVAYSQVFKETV
In words: Human TLR7 Assay (SEAP reporter).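 Also: SEAP driven by an NFkB-responsive composite promoter, pEC50 read at half of each compound's own maximal SEAP induction.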 Type of test: cell-based. The conditions noted are these: HEK293 cell line stably expressing human TLR7 and pNiFty2-SEAP reporter; SEAP induction after overnight incubation at 37° C., 0.1% (v/v) DMSO.

For the molecule `CCC[C@@H](CO)Nc1nc(N)nc(C)c1Cc1ccc(CC(=O)OC)cc1OC` [Example 30, (S)-Methyl 2-(4-((2-amino-4-(1-hydroxypentan-2-ylamino)-6-methylpyrimidin-5-yl)methyl)-3-methoxyphenyl)acetate], the EC50 is 31.6 nM. As for `CCCC[C@@H](CCO)Nc1nc(N)nc(C)c1Cc1ccc(CC(=O)OC)cc1OC` [Example 31, (S)-Methyl 2-(4-((2-amino-4-(1-hydroxyheptan-3-ylamino)-6-methylpyrimidin-5-yl)methyl)-3-methoxyphenyl)acetate], the figure is 6.31 nM; as for `CCCC[C@@H](CO)Nc1nc(N)nc(C)c1Cc1ccc(CC(=O)OC)cc1OC` [Example 32, (S)-Methyl 2-(4-((2-amino-4-(1-hydroxyhexan-2-ylamino)-6-methylpyrimidin-5-yl)methyl)-3-methoxyphenyl)acetate], 50.1 nM. The result for `CCCC[C@@H](CCO)Nc1nc(N)nc(C)c1Cc1ccc(CC(=O)OC)cc1F` [Example 33, (S)-Methyl 2-(4-((2-amino-4-(1-hydroxyheptan-3-ylamino)-6-methylpyrimidin-5-yl)methyl)-3-fluorophenyl)acetate] reads 50.1 nM; that for `CCCCCNc1nc(N)nc(C)c1Cc1ccc(CC(=O)OCCN2CCOCC2)cc1` [Example 35, 2-Morpholinoethyl 2-(4-((2-amino-4-methyl-6-(pentylamino)pyrimidin-5-yl)methyl)phenyl)acetate], 251 nM; that for `CCCCCNc1nc(N)nc(C)c1Cc1ccc(CC(=O)OCCN(C)C)cc1` [Example 36, 2-(Dimethylamino)ethyl 2-(4-((2-amino-4-methyl-6-(pentylamino)pyrimidin-5-yl)methyl)phenyl)acetate], 251 nM.

On to `CCCCCNc1nc(N)nc(C)c1Cc1ccc(CC(=O)OCCCN(C)C)cc1` [Example 37, 3-(Dimethylamino)propyl 2-(4-((2-amino-4-methyl-6-(pentylamino)pyrimidin-5-yl)methyl)phenyl)acetate], for which the EC50 is 126 nM. Regarding `CCCCCNc1nc(N)nc(C)c1Cc1ccc(CC(=O)OCCN2CCN(C)CC2)cc1` [Example 38, 2-(4-Methylpiperazin-1-yl)ethyl 2-(4-((2-amino-4-methyl-6-(pentylamino)pyrimidin-5-yl)methyl)phenyl)acetate], the 50% effective concentration (EC50) is 126 nM. As to `CCCCCNc1nc(N)nc(C)c1Cc1cc(CC(=O)OC)ccc1O` [Example 39, Methyl 2-(3-((2-amino-4-methyl-6-(pentylamino)pyrimidin-5-yl)methyl)-4-hydroxyphenyl)acetate], the concentration for a half-maximal effect (EC50) is 100 nM.

Take `CCCCCNc1nc(N)nc(C)c1Cc1ccc(OCC(=O)OC)cc1OC` [Example 40, Methyl 2-(4-((2-amino-4-methyl-6-(pentylamino)pyrimidin-5-yl)methyl)-3-methoxyphenoxy)acetate]: the EC50 is 126 nM. As for `CCCCNc1nc(N)nc(C)c1Cc1ccc(CC(=O)OC)cc1` [Example 41, Methyl 2-(4-((2-amino-4-(butylamino)-6-methylpyrimidin-5-yl)methyl)phenyl)acetate], the figure is 1000 nM; as for `CCC[C@@H](CCO)Nc1nc(N)nc(C)c1Cc1cc(CC(=O)OC)ccc1F` [Example 42, (S)-Methyl 2-(3-((2-amino-4-(1-hydroxyhexan-3-ylamino)-6-methylpyrimidin-5-yl)methyl)-4-fluorophenyl)acetate], 631 nM; as for `CCC[C@@H](CO)Nc1nc(N)nc(C)c1Cc1ccc(CC(=O)OC)cc1` [Example 43, (S)-Methyl 2-(4-((2-amino-4-(1-hydroxypentan-2-ylamino)-6-methylpyrimidin-5-yl)methyl)phenyl)acetate], 794 nM. On to `CCCC[C@@H](CO)Nc1nc(N)nc(C)c1Cc1ccc(CC(=O)OC)cc1` [Example 44, (S)-Methyl 2-(4-((2-amino-4-(1-hydroxyhexan-2-ylamino)-6-methylpyrimidin-5-yl)methyl)phenyl)acetate], for which the concentration giving a half-maximal response (EC50) is 631 nM. Turning to `CCC[C@@H](CCO)Nc1nc(N)nc(C)c1Cc1ccc(CC(=O)OC)cc1F` [Example 45, (S)-Methyl 2-(4-((2-amino-4-(1-hydroxyhexan-3-ylamino)-6-methylpyrimidin-5-yl)methyl)-3-fluorophenyl)acetate], the 50% effective concentration (EC50) was 50.1 nM. The result for `CCC[C@@H](CO)Nc1nc(N)nc(C)c1Cc1ccc(CC(=O)OC)cc1F` [Example 47, (S)-Methyl 2-(4-((2-amino-4-(1-hydroxypentan-2-ylamino)-6-methylpyrimidin-5-yl)methyl)-3-fluorophenyl)acetate] reads 501 nM; that for `CCC[C@@H](CCO)Nc1nc(N)nc(C)c1Cc1ccc(CC(=O)OC)cc1OC` [Example 48, (S)-Methyl 2-(4-((2-amino-4-(1-hydroxyhexan-3-ylamino)-6-methylpyrimidin-5-yl)methyl)-3-methoxyphenyl)acetate], 2 nM; that for `CCC[C@@H](CCO)Nc1nc(N)nc(C)c1Cc1ccc(CC(=O)OC)cc1` [Example 49, (S)-Methyl 2-(4-((2-amino-4-(1-hydroxyhexan-3-ylamino)-6-methylpyrimidin-5-yl)methyl)phenyl)acetate], 200 nM. With `CCCC[C@@H](CCO)Nc1nc(N)nc(C)c1Cc1ccc(CC(=O)OC)cc1` [Example 50, (S)-Methyl 2-(4-((2-amino-4-(1-hydroxyheptan-3-ylamino)-6-methylpyrimidin-5-yl)methyl)phenyl)acetate], the 50% effective concentration (EC50) was 158 nM. As for `CCCCCNc1nc(N)nc(C)c1CCCN(Cc1ccc(CC(=O)OC)cc1)C(=O)C1CCN(C)CC1` [Example 51, Methyl 2-(4-((N-(3-(2-amino-4-methyl-6-(pentylamino)pyrimidin-5-yl)propyl)-1-methylpiperidine-4-carboxamido)methyl)phenyl)acetate], the figure is 794 nM.

`CCCCCNc1nc(N)nc(C)c1CCCN(Cc1ccc(CC(=O)OC)cc1)C(=O)CSC` [Example 52, Methyl 2-(4-((N-(3-(2-amino-4-methyl-6-(pentylamino)pyrimidin-5-yl)propyl)-2-(methylthio)acetamido)methyl)phenyl)acetate]: the EC50 is 631 nM. The result for `CC[C@H](O)CNc1nc(N)nc(C)c1Cc1ccc(CC(=O)OC)cc1OC` [Example 53, (S)-Methyl 2-(4-((2-amino-4-(2-hydroxybutylamino)-6-methylpyrimidin-5-yl)methyl)-3-methoxyphenyl)acetate] reads 39.8 nM; that for `CCCCCNc1nc(N)nc(C)c1Cc1cc(CC(=O)OC)ccc1OC` [Example 54, Methyl 2-(3-((2-amino-4-methyl-6-(pentylamino)pyrimidin-5-yl)methyl)-4-methoxyphenyl)acetate], 79.4 nM.

Turning to `CCCCCNc1nc(N)nc(C)c1Cc1ccc(CC(=O)OCC(C)(C)CN(C)C)cc1` [Example 55, 3-(Dimethylamino)-2,2-dimethylpropyl 2-(4-((2-amino-4-methyl-6-(pentylamino)pyrimidin-5-yl)methyl)phenyl)acetate], the EC50 was 126 nM. In the case of `CCCCCNc1nc(N)nc(C)c1Cc1ccc(CC(=O)OCCCN2CCN(C)CC2)cc1` [Example 56, 3-(4-Methylpiperazin-1-yl)propyl 2-(4-((2-amino-4-methyl-6-(pentylamino)pyrimidin-5-yl)methyl)phenyl)acetate], the concentration giving a half-maximal response (EC50) is 251 nM.
